PMC8228075, “In Vitro and In Silico Characterization of G-Protein Coupled Receptor (GPCR) Targets of Phlorofucofuroeckol-A and Dieckol” (Marine Drugs, 2021)
Values joined by “and” are separate entries in the source; they are usually repeats but may differ in a detail not shown here. Identical values can stand only once. Like-named read-outs stand apart in the source and are kept apart here. Marks after values point to notes of the source that are not given here.

Tests used:
[1] = target: T1, Vasopressin 1A receptor (hV1AR) (Homo sapiens, UniProt P37288); parameters: method as in PMID 31238535; conditions: 100 µM, % of control response to 1 µM AVP, value extracted from previous study ref 22, cited from earlier work
T1 construct: host or cells: CHO-V1AR cells
T1 sequence (P37288 whole entry): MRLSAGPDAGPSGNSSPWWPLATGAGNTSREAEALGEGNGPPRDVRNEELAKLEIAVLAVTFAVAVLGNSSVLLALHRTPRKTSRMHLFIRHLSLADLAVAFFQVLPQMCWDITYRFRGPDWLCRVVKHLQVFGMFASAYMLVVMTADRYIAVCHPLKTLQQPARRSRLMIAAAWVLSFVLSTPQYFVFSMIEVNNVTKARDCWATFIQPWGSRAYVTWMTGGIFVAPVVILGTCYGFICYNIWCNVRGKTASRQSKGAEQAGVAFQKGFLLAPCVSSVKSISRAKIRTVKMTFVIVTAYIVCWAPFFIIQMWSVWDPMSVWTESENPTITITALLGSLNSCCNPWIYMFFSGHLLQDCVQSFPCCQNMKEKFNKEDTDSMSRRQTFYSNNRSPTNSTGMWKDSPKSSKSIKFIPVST

[2] = target: T2, Glucagon-like peptide-1 receptor (GLP-1) (Mus musculus, UniProt O35659); experiment: GLP-1R functional antagonist assay (cAMP, HTRF, βTC6 cells); format: cell-based; conditions: for Antagonist Effect: % inhibition of control response to 0.3 nM GLP-1(7–37); for IC50: antagonist effect, mean ± SD, n = 3; for inhibition at 12.5 µM / inhibition at 25 µM / inhibition at 100 µM: read-out: Antagonist Effect
T2 construct: mouse GLP-1 receptor-expressed βTC6 cells; host or cells: βTC6 cells
T2 sequence (O35659 22-463): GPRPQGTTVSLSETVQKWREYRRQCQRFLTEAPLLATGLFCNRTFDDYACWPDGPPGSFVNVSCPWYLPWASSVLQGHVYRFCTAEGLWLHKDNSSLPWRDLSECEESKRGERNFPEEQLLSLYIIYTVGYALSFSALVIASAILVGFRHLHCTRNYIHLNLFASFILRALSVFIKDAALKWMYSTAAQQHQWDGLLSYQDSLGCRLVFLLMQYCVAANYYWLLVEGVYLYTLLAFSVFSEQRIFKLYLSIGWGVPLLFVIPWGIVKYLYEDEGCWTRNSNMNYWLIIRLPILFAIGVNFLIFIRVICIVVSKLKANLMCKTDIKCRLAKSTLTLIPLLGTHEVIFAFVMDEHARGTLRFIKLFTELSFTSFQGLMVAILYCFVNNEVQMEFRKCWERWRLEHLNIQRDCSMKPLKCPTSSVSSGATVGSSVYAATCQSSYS
Method: (§1) The in-house assay protocol and experimental conditions are reported in our previous reports. The functional effect of dieckol and PFF-A was characterized based on their modulation effect on cytosolic Ca^2+ ion mobilization using a fluorimetric detection method or by measuring their effect on cAMP modulation using homogeneous time-resolved fluorescence (HTRF) detection.
(§2) Functional activity of phlorotannins over hA2AR, hα2CAR, hCB1R, GLP-1R, and h5-HT1BR was determined by measuring their effects on cAMP production by the HTRF detection method using transected cells expressing human cloned receptors.
(§3) The HBSS buffer (Invitrogen) complemented with 20 mM HEPES (pH 7.4) and 500 µM IBMX was used to suspend and distribute the βTC6 cells at a density of 1.5x10^4 cells/well. The plate was then incubated for 10 min at RT in the presence of HBSS (basal and stimulated control), the test compound, or the reference agonist and antagonist. […] Following incubation, the cells were lysed and the fluorescence acceptor (D2-labeled cAMP) and fluorescence donor (anti-cAMP antibody labeled with europium cryptate) were added.

[3] = target: T2, Glucagon-like peptide-1 receptor (GLP-1); experiment: GLP-1R functional agonist assay (cAMP, HTRF, βTC6 cells); format: cell-based; conditions: 100 µM; % of control response to 100 nM GLP-1(7–37)
Method: as §1, §2, §3

h5-HT1BR = h5-HT1BR (Homo sapiens, UniProt P28222); experiment: h5-HT1BR functional antagonist assay (cAMP, HTRF, Hela cells); format: cell-based; conditions: HeLa, read-out: Antagonist Effect
Chain of h5-HT1BR (P28222 whole entry): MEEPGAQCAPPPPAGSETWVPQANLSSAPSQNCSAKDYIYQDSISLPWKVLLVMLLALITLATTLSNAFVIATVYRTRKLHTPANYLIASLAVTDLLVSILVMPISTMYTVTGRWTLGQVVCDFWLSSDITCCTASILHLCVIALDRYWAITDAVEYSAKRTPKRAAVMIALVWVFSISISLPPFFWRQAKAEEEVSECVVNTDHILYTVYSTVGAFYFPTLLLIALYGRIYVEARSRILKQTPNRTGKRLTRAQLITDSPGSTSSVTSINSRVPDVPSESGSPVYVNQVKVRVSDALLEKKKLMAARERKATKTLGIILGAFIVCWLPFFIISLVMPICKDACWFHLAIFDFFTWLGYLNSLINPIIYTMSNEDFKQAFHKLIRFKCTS
Method: as §1, §2
Concisely, a plasmid containing the GPCR gene of interest (5-HT1B) was transfected into Hela cells. The resulting stable transfectants were suspended in HBSS buffer (Invitrogen, Carlsbad, CA, USA) containing 20 mM HEPES (pH 7.4), […], 1 mg/mL glucose, and 500 μM IBMX and distributed in microplates at a density of 2 × 10^4 cells/well. […] Then, the cells were lysed and a fluorescence acceptor (D2-labeled cAMP) and fluorescence donor (anti-cAMP antibody with europium cryptate) were added following 60 min incubation at RT.

[4] = target: T1, Vasopressin 1A receptor (hV1AR); experiment: hV1AR functional agonist assay (Ca2+ mobilization, CHO-V1AR cells); format: cell-based; conditions: for Agonist Effect: % of control response to 1 µM AVP
Description: as §1
Then, fluorescent probe (Fluo4, Invitrogen) mixed with probenecid in HBSS buffer (Invitrogen, Carlsbad, CA, USA) supplemented with 20 mM HEPES, pH 7.4 (Invitrogen) was added to each well, allowing to equilibrate with the cells for 60 min at 37 °C, then 15 min at 22 °C.

Row | Compound | Agonist Effect [1] | Agonist Effect ([1]; listed as Phlorofucofuroeckol-A) | Antagonist Effect ([2]; 25 µM) | Antagonist Effect ([2]; 50 µM) | IC50 [2] | potency relative to dieckol ([2]; from IC50 values, GLP-1R antagonist effect) | inhibition at 12.5 µM [2] | inhibition at 25 µM [2] | inhibition at 100 µM [2] | Agonist Effect [3] | inhibition at 100 µM (h5-HT1BR) | inhibition at 200 µM (h5-HT1BR) | Antagonist Effect ([2]; 100 µM) | Agonist Effect ([4]; 50 µM) | Agonist Effect ([4]; 100 µM) | Agonist Effect ([4]; 150 µM) | EC50 ([4]; agonist effect, mean ± SD, n = 3)
1 | Oc1cc(O)cc(Oc2c(O)cc(O)c3c2Oc2c(O)cc4oc5c(Oc6cc(O)cc(O)c6)c(O)cc(O)c5c4c2O3)c1 [PFF-A, phlorofucofuroeckol-A] | 38.45 ± 7.14% and 38.45 ± 7.14 ^c % | 38.45 ± 7.14 ^a % | 57.37 ± 1.15% | 83.87 ± 2.03% | 21.6 ± 2.16 µM | two-fold higher | 25.6 ± 13.1% | 57.4% | 106 ± 1.27% | −15.5 ± 2.55% | -18.5 ± 2.69% | -35.5 ± 4.38% | – | – | – | – | –
2 | Oc1cc(O)cc(Oc2c(O)cc(O)c3c2Oc2c(O)cc(Oc4c(O)cc(Oc5c(O)cc(O)c6c5Oc5c(O)cc(O)cc5O6)cc4O)cc2O3)c1 [Dieckol, dieckol] | – | – | 21.23 ± 7.31% | 53.80 ± 3.12% | 47.2 ± 2.46 µM | – | 17.9 ± 6.32% | 21.2% | 101 ± 8.2% | −16.3 ± 1.13% | -7.3 ± 3.96% | -8.1 ± 0.85% | 101.0 ± 8.20% | 50.40 ± 0.42% | 106.73 ± 2.97% | 118.1 ± 2.83% | 39.1 ± 2.12 µM
